Measurements from patent publication US11807627B2, “Morphic forms of complement factor D inhibitors” (priority 2018, dated 2023).
Values after ≈ are worked out from the molar mass of the structure shown.

Columns and labels:
Assay type in all cases: physicochemical
[1] = Polymorph study: crash cooling
Method: Saturated solutions of Compound 3 produced from temperature cycling experiments were placed into a fridge to crash cool to 4° C. After about 4 days, observations were made and solids produced were isolated using centrifuge filtration and analyzed by XRPD. Where no solids were recovered, solutions were placed into a freezer (−20° C.) for 14 days. Any solids produced were isolated by centrifuge filtration and analyzed by XRPD (Table 19).

[2] = pH experiments and SIF/SGF/FaSSIF/FeSSIF solubility (Examples 3 and 4)
[3] = Polymorph study: temperature cycling
Method: Approximately 960 mg of Compound 3 Form A was weighed into a 20 mL glass vial and dissolved using 12 mL 1,4-dioxane. 0.5 mL of the solution was then dispensed into twenty-four 1.5 mL HPLC glass vials (approx. 40 mg per vial). The Compound 3 Form A solutions were then frozen (at −50° C.) and dried by lyophilization using a Lablyo mini freeze drier. Post-lyophilization, a sub-sample was taken and analyzed by XRPD. Material was successfully rendered amorphous by lyophilization.
An appropriate volume of solvent (solvent systems are detailed in Table 17) was added to lyophilized solids. The samples were temperature cycled between ambient and 40° C. (4 hour cycles) for around 72 hours. Observations were made after 72 hours temperature cycling. Further solvent was added to the samples to produce a mobile slurry and slurries were agitated at 40° C. for approximately 18 additional hours. A sub-sample of solid (where applicable) was analyzed by XRPD. Samples were heated using a heat gun to aid dissolution to ensure saturated solutions were produced. Saturated solutions were syringe filtered to remove any potential seed material (as a precaution) and divided between three different crystallization conditions: cooling, evaporation, and anti-solvent addition (volumes of saturated solutions per condition can be found in Table 17).

[4] = Solvent experiments (solubility, Example 3)
[5] = Dose number and BCS classification
[6] = Compression study (25 kN, 50 kN; Example 13)
Method: A mixture of Form A ±Form B and Form B were compressed using a specac IR die press. A total of approximately 100 mg (50 mg A ±50 mg B and 100 mg B) were weighed into separate 2 mL glass vials. The solids were then placed into the IR dies and pressed under 25 kN and 50 kN for about 10-15 seconds. After pressing to 25 kN, material was removed from the dies and ground slightly. A sub-sample was taken and XRPD analysis was collected. Material was then placed back into the dies and pressed to 50 kN. After pressing to 50 kN, material was removed from the dies and ground slightly before collecting XRPD analysis. Both samples observed a small color change from white to off-white after being pressed to 25 kN. […] No single form was observed when compressing a mixture of Forms A and form B material, but a decrease in crystallinity was observed when exerting 50 kN on the mixture.

[7] = Interconversion experiments: competitive slurries (Example 2, Table 6); conditions: Forms A and G vs Form B, ethyl acetate, ambient and approximately 50° C.
Method: A solution of Compound 3 and solvent/solvent system of interest was prepared. Solids persisted in solution. The samples were placed onto a stir plate at ambient (RT) or elevated (ET) temperatures. The samples were monitored to ensure that solids persisted during the slurry process. The solids were collected via vacuum filtration and dried under ambient conditions. […] At ambient temperature, Forms B and M are both present after almost a week of slurrying.

[8] = 40% Ethanol / 60% Water (% v/v) calc. aw = 0.7
[9] = 50% 2-Propanol / 50% Heptane (% v/v), WC = weakly crystalline
[10] = 50% Acetonitrile / 50% Water (% v/v) calc. aw = 0.9
[11] = 50% Ethanol / 50% Heptane (% v/v)
[12] = 70% 2-Propanol / 30% Water (% v/v) aw = 0.8
[13] = 95% 2-Propanol / 5% Heptane (% v/v)
[14] = 95% Methanol / 5% Water (% v/v) calc. aw = 0.2

Compound: CC(=O)c1nn(CC(=O)N2[C@H](C(=O)Nc3nc(Br)ccc3C)C[C@@]3(C)C[C@@H]23)c2ccc(-c3cnc(C)nc3)cc12 [Compound 3, (1R,3S,5R)-2-(2-(3-acetyl-5-(2-methylpyrimidin-5-yl)-1H-indazol-1-yl)acetyl)-N-(6-bromo-3-methylpyridin-2-yl)-5-methyl-2-azabicyclo[3.1.0]hexane-3-carboxamide]
- Crystallization technique: Cooling ([1]; 1-Butanol): Form A
- Crystallization technique: Cooling ([1]; 2-Methyl Tetrahydrofuran): Clear solution
- Crystallization technique: Cooling ([1]; 2-Propanol): Form A
- Crystallization technique: Cooling [1, 8]: Amorphous
- Crystallization technique: Cooling [1, 9]: Form A (WC)
- Crystallization technique: Cooling [1, 10]: Clear solution
- Crystallization technique: Cooling [1, 11]: Form A
- Crystallization technique: Cooling ([1]; 70% 2-Propanol / 30% Heptane (% v/v)): Clear solution
- Crystallization technique: Cooling [1, 12]: Clear solution
- Crystallization technique: Cooling [1, 13]: Form A
- Crystallization technique: Cooling ([1]; 95% Heptane / 5% 2-Propanol (% v/v)): Clear solution
- Crystallization technique: Cooling [1, 14]: Clear solution
- Crystallization technique: Cooling ([1]; Acetone): Form A
- Crystallization technique: Cooling ([1]; Acetonitrile): Clear solution
- Crystallization technique: Cooling ([1]; Ethanol): Amorphous
- Crystallization technique: Cooling ([1]; Ethyl Acetate (dry)): Amorphous
- Crystallization technique: Cooling ([1]; Methanol): Clear solution
- Crystallization technique: Cooling ([1]; Methylethyl Ketone): Clear solution
- Crystallization technique: Cooling ([1]; Methylisobutyl Ketone): Clear solution
- Crystallization technique: Cooling ([1]; Tetrahydrofuran): Clear solution
- Crystallization technique: Cooling ([1]; Toluene): Amorphous
- Crystallization technique: Cooling ([1]; n-Heptane): Clear solution
- Crystallization technique: Cooling ([1]; tert-Butylmethyl Ether): Clear solution
- pH Experiments (solubility) ([2]; 1.2 pH): 389.37 μg/mL
- pH Experiments: stability in the medium ([2]; 1.2 pH): degrades
- pH Experiments (solubility) ([2]; 4.0 pH): 56.68 μg/mL
- pH Experiments (solubility) ([2]; 6.0 pH): 54.60 μg/mL
- pH Experiments (solubility) ([2]; 7.4 pH): 53.41 μg/mL
- solubility ([2]; FaSSIF, read-out: FaSSIF solubility): 75.4 µg/mL (≈ 125 µM)
- solubility ([2]; FeSSIF, read-out: FeSSIF solubility): 153 µg/mL (≈ 254 µM)
- pH Experiments (solubility) ([2]; SGF pH = 1.6): 96.35 μg/mL
- pH Experiments (solubility) ([2]; SIF pH = 6.5): 80.77 μg/mL
- Crystallization technique: Maturation ([3]; 1,4-Dioxane): Clear solution
- Crystallization technique: Maturation ([3]; 1-Butanol): Form A
- Crystallization technique: Maturation ([3]; 2-Methyl Tetrahydrofuran): Form A
- Crystallization technique: Maturation ([3]; 2-Propanol): Form A
- Crystallization technique: Maturation [3, 8]: Pattern N
- Crystallization technique: Maturation [3, 9]: Form A (WC)
- Crystallization technique: Maturation [3, 10]: Clear solution
- Crystallization technique: Maturation [3, 11]: Amorphous
- Crystallization technique: Maturation ([3]; 70% 2-Propanol / 30% Heptane (% v/v), WC = weakly crystalline): Form B (WC)
- Crystallization technique: Maturation [3, 12]: Form A
- Crystallization technique: Maturation [3, 13]: Form A
- Crystallization technique: Maturation ([3]; 95% Heptane / 5% 2-Propanol (% v/v), WC = weakly crystalline): Form A (WC)
- Crystallization technique: Maturation [3, 14]: Amorphous
- Crystallization technique: Maturation ([3]; Acetone): Form B
- Crystallization technique: Maturation ([3]; Acetonitrile): Form J
- Crystallization technique: Maturation ([3]; Ethanol): Amorphous
- Crystallization technique: Maturation ([3]; Ethyl Acetate (dry)): Amorphous
- Crystallization technique: Maturation ([3]; Methanol): Pattern O
- Crystallization technique: Maturation ([3]; Methylethyl Ketone): Form A
- Crystallization technique: Maturation ([3]; Methylisobutyl Ketone, WC = weakly crystalline): Form A (WC)
- Crystallization technique: Maturation ([3]; Tetrahydrofuran): Clear solution
- Crystallization technique: Maturation ([3]; Toluene): Amorphous
- Crystallization technique: Maturation ([3]; n-Heptane): Amorphous
- Crystallization technique: Maturation ([3]; tert-Butylmethyl Ether): Amorphous
- solubility ([4]; DMSO, organic solvent or mixture): 104000 µg/mL (≈ 173000 µM)
- solubility ([4]; UPLC Water): 1040 µg/mL (≈ 1730 µM)
- solubility ([4]; acetone, organic solvent or mixture): 34300 µg/mL (≈ 56900 µM)
- solubility ([4]; ethanol, organic solvent or mixture): 8380 µg/mL (≈ 13900 µM)
- solubility ([4]; heptane, organic solvent or mixture): 865 µg/mL (≈ 1440 µM)
- BCS class [5]: BCS II compound
- Dose Number ([5]; for 100 mg dose): Dose Number for 100 mg dos 3-7

Compound: CC(=O)c1nn(CC(=O)N2[C@H](C(=O)Nc3nc(Br)ccc3C)C[C@@]3(C)C[C@@H]23)c2ccc(-c3cnc(C)nc3)cc12 [Form B]
- Form change under compression (XRPD) ([6]; 25 kN and 50 kN): did not change under pressure
- XRPD Results ([6]; Pressure Exerted 25 kN): Form B
- XRPD Results ([6]; Pressure Exerted 50 kN): Form B
- Relative stability in competitive slurry [7]: more stable form
